Results: patent US20140294978A1, “CATIONIC LIPID” (Kyowa Hakko Kirin Co., Ltd., priority 2013, published 2014)
Blank lines part the entries; values can stand above or below the molecule they belong to.

What was measured:
[1] = Average particle diameter of the lipid nanoparticles in each preparation (Zetasizer Nano ZS); assay type: physicochemical
Description: Each sample was weighed so that the ratio of each of Compounds I-1 to I-5/1,2-dimyristoyl-sn-glycero-3-phosphoethanolamine-N-(methoxy(polyethylene glycol)-2000) sodium salt (PEG-DMPE Na, N-(carbonylmethoxypolyethylene glycol 2000)-1,2-dimyristoyl-sn-glycero-3-phosphoethanolamine sodium salt, manufactured by NOF Corporation)/disteazoylphosphatidyl choline (DSPC, 1,2-distearoyl-sn-glycero-3-phosphocholine, manufactured by NOF Corporation)/choiestercl (manufactured by NOF Corporation)=8.947/1.078/5.707/13.698 mmol/L, and dissolved in 90 vol % ethanol, whereby a solution containing the constituent components of a lipid membrane was prepared. Separately, apo-b siRNA in distilled water (24 mg/mL) was diluted with a Tris-EDTA buffer solution (200 mM Tris-HCl, 20 mM EDTA, manufactured by Invitrogen Co., Ltd.) and a 20 mM citric acid buffer solution (pH 5.0), whereby a 1.5 mg/mL apo-b siRNA aqueous solution (2 mM Tris-EDTA buffer solution, 20 mM citric acid buffer solution, pH 5.0) was prepared.
The obtained lipid solution was heated to 37° C., and a 500 μL portion was transferred to a container for preparing a preparation. The obtained apo-b siRNA aqueous solution (500 μL) was then added thereto while stirring. Then, a 20 mM citric acid buffer solution (containing 300 mM NaCl, pH 6.0, 1000 μL) was added to the obtained lipid nucleic acid mixed suspension (1000 μL) while stirring, and further, DPBS (manufactured by Invitrogen Co., Ltd., 3310 μL) was added dropwise thereto, whereby a crude preparation was obtained. The obtained crude preparation was concentrated by using Amicon Ultra (manufactured by Millipore Co., Ltd.), and further, the solvent was replaced with DPBS, and the resulting mixture was filtered through a 0.2-μm filter (manufactured by Toyo Roshi Kaisha, Ltd.) in a laminar flow cabinet. Further, the siRNA concentration in the obtained preparation was measured, and the preparation was diluted with DPBS so that the siRNA concentration was 0.3 mg/mL, whereby preparations (compositions containing any of Compounds I-1 to I-5, and the nucleic acid) were obtained.
The average particle diameter of the lipid nanoparticles in each preparation was measured using a particle diameter measurement device (Zetasizer Nano ZS, manufactured by Malvern).
Preparations were obtained in the same manner as in Example 9 except that Compounds I-1 to I-5 were changed to DLin-KC2-DMA synthesized by a modified method of the method described in WO2010/042877 and the compounds obtained in Reference Examples 5 to 7 (Compounds VII-1 to VII-3).
The average particle diameter of the lipid nanoparticles in each preparation was measured using a particle diameter measurement device.
Each sample was weighed so that the ratio of Compound I-6/PEG-DMPE Na (manufactured by NOF Corporation)/DSPC (manufactured by NOF Corporation)/cholesterol (manufactured by NOF Corporation)=3.532/0.270/1.156/2.401 mmol/L, and dissolved in 100 volt ethanol, whereby a solution containing the constituent components of a lipid membrane was prepared.
The obtained lipid solution was heated to 37° C., and an 800 μL portion was transferred to a container for preparing a preparation. The obtained f7 siRNA aqueous solution (800 μL) was then added thereto while stirring. Then, a 20 mM citric acid buffer solution (containing 300 mM NaCl, pH 6.0, 1600 μL) was added to the obtained lipid nucleic acid mixed suspension (1600 μL) while stirring, and further, DPBS (manufactured by Invitrogen Co., Ltd., […]) was added dropwise thereto, whereby a crude preparation was obtained. The obtained crude preparation was concentrated by using Amicon Ultra (manufactured by Millipore Co., Ltd.), and further, the solvent was replaced with DPBS, and the resulting mixture was filtered through a 0.45-μm filter (manufactured by Toyo Roshi Kaisha, Ltd.) in a laminar flow cabinet. […]

Factor VII = test: In vivo drug efficacy: Factor VII protein level in plasma of mice after intravenous f7 siRNA preparations; conditions: Balb/c mice, 0.3 or 0.1 mg/kg in terms of siRNA, 48 hours after administration, f7 siRNA preparation, FIG. 4
Method: Each of the preparations obtained in Examples 10 and 11 (the compositions containing Compound I-6, I-1, I-7, or I-8, and the nucleic acid) was tested for evaluating the in vivo drug efficacy according to the following method. Incidentally, each preparation was used after it was diluted in accordance with the test.
After mice (Balb/c, obtained from CLEA Japan, Inc.) were housed and acclimated, each preparation was intravenously administered to mice at a dose of 0.3 or 0.1 mg/kg in terms of siRNA concentration. At 48 hours after the administration, blood was collected, and the collected blood was centrifuged at 8000 rpm for 8 minutes at 4° C. using a high speed refrigerated microcentrifuge (TOMY MX305, manufactured by Tomy Seiko Co., Ltd.). The Factor VII protein level in the thus obtained plasma sample was determined as follows. A BIOPHEN VII Kit (Cat. No. A221304, manufactured by ANIARA Company) was used, and according to the method described in the protocol attached to the kit, the absorbance was measured in a standard solution and in the plasma sample using ARVO (405 nm). On the basis of the obtained absorbance, a calibration curve was prepared, and the Factor VII protein level in the plasma was calculated. Incidentally, the number of mice in each group was set to 3.

[2] = system: apo-b gene mRNA in human liver cancer-derived cell line HepG2; test: Expression ratio of apo-b mRNA after introduction of preparations into HepG2 cells; assay type: cell-based; conditions: preparation with apo-b siRNA, nucleic acid 1 to 30 nM, 24 hours, FIG. 1
Description: Each of the preparations obtained in Example 9 (the compositions containing any of Compounds I-1, and I-3 to I-5, and the nucleic acid) and the preparations obtained in Comparative Example 1 (the compositions containing any of DLin-KC2-DMA and Compounds VII-1 to VII-3, and the nucleic acid) was introduced into cells of a human liver cancer-derived cell line HepG2 (HB-8065) by the following method.
Each preparation diluted with Opti-MEM (GIBCO Co., Ltd., 31985) so that the final concentration of the nucleic acid was 1 to 30 nM was dispensed in a 96-well culture plate at 20 μL/well. […]
By using the obtained cDNA as a template and also using a universal probe library (Roche Applied Science, Inc., 04683633001) as the probe and ABI7900HT Fast (manufactured by ABI, Inc.), a PCR reaction was performed according to the method described in the protocol attached thereto, so that the apo-b gene and D-glyceraldehyde-3-phosphate dehydrogenase (hereinafter, represented by “gapdh”) gene, which is a constitutively expressed gene, were subjected to the PCR reaction. Then, the amount of the amplified mRNA was measured for each gene, and aquasi-quantitative value of the apo-b mRNA was calculated using the amount of the amplified gapdh mRNA as the internal control. […]

[3] = preparations of Example 9: cationic lipid/PEG-DMPE Na/DSPC/cholesterol with apo-b siRNA
[4] = preparations of Examples 10 and 11: cationic lipid/PEG-DMPE Na/DSPC/cholesterol with f7 siRNA
[5] = preparations of Comparative Example 1, made as in Example 9, with apo-b siRNA

SMILES: CCCCC/C=C\C/C=C\CCCCCCCCN(CCCCCCCC/C=C\C/C=C\CCCCC)C(=O)OCCCN(C)C [Compound I-1, 3-(Dimethylamino)propyl di((9Z,12Z)-octadeca-9,12-dienyl)carbamate]
Particle diameter of Preparation obtained [1, 3]: 151.8 nm | Particle diameter of Preparation obtained [1, 4]: 118.9 nm | Factor VII protein level in the plasma (expression of the Factor VII gene) (Factor VII): strongly suppressed

SMILES: CCCCCCCC/C=C\CCCCCCCCN(CCCCCCCC/C=C\CCCCCCCC)C(=O)OCCCN(C)C [Compound I-2, 3-(Dimethylamino)propyl di((Z)-octadec-9-enyl)carbamate]
Particle diameter of Preparation obtained [1, 3]: 135.8 nm

SMILES: CCCCCC/C=C\CCCCCCCCN(CCCCCCCC/C=C\CCCCCC)C(=O)OCCCN(C)C [Compound I-3, 3-(Dimethylamino)propyl di((Z)-hexadec-9-enyl)carbamate]
Particle diameter of Preparation obtained [1, 3]: 150.0 nm

SMILES: CCCCC/C=C\C/C=C\CCCCCCCCCCN(CCCCCCCCCC/C=C\C/C=C\CCCCC)C(=O)OCCCN(C)C [Compound I-4, 3-(Dimethylamino)propyl di((11Z,14Z)-icosa-11,14-dienyl)carbamate]
Particle diameter of Preparation obtained [1, 3]: 159.0 nm

SMILES: CCCCC/C=C\C/C=C\CCCCCCCCN(CCCCCCCC/C=C\C/C=C\CCCCC)C(=O)OCCN(C)C [Compound I-5, 2-(Dimethylamino)ethyl di((9Z,12Z)-octadeca-9,2-dienyl)carbamate]
Particle diameter of Preparation obtained [1, 3]: 137.0 nm

SMILES: CCCCC/C=C\C/C=C\CCCCCCCCN(CCCCCCCC/C=C\C/C=C\CCCCC)C(=O)OCCC1CCCN1C (stereo not drawn) [Compound I-6, 2-(1-Methylpyrrolidin-2-yl)ethyl di((9Z,12Z)-octadeca-9,12-dienyl)carbamate]
Particle diameter of Preparation obtained [1, 4]: 121.1 nm | Factor VII protein level in the plasma (expression of the Factor VII gene) (Factor VII): strongly suppressed

SMILES: CCCCC/C=C\C/C=C\CCCCCCCCN(CCCCCCCC/C=C\C/C=C\CCCCC)C(=O)OCCCN1CCCCC1 [Compound I-7, 3-(Piperidin-1-yl)propyl di((9Z,12Z)-octadeca-9,12-dienyl)carbamate]
Particle diameter of Preparation obtained [1, 4]: 131.8 nm | Factor VII protein level in the plasma (expression of the Factor VII gene) (Factor VII): strongly suppressed

SMILES: CCCCC/C=C\C/C=C\CCCCCCCCN(CCCCCCCC/C=C\C/C=C\CCCCC)C(=O)OCCCN1CCCC1 [Compound I-8, 3-(Pyrrolidin-1-yl)propyl di((9Z,12Z)-octadeca-9,2-dienyl)carbamate]
Particle diameter of Preparation obtained [1, 4]: 121.6 nm | Factor VII protein level in the plasma (expression of the Factor VII gene) (Factor VII): strongly suppressed

SMILES: CCCCC/C=C\C/C=C\CCCCCCCCC1(CCCCCCCC/C=C\C/C=C\CCCCC)OCC(CCN(C)C)O1 (stereo not drawn) [DLin-KC2-DMA, 2,2-dilinoleyl-4-(2-dimethylaminoethyl)-[1,3]-dioxolane, reference compound]
Particle diameter of Preparation obtained [1, 5]: 159.8 nm

Now from value to molecule, other results behind:

Particle diameter of Preparation obtained [1, 5]: 176.6 nm
SMILES: CCCCC/C=C\C/C=C\CCCCCCCCN(CCCCCCCC/C=C\C/C=C\CCCCC)C(=O)CCCCN [Compound VII-1, 5-Amino-N,N-di((9Z,12Z)-octadeca-9,12-dienyl)pentanamide, reference compound]

Particle diameter of Preparation obtained [1, 5]: 160.1 nm
SMILES: CCCCC/C=C\C/C=C\CCCCCCCCN(CCCCCCCC/C=C\C/C=C\CCCCC)C(=O)CCCCN(C)C [Compound VII-2, 5-(Dimethylamino)-N,N-di((9Z,12Z)-octadeca-9,12-dienyl)pentanamide, reference compound]
expression of the apo-b gene mRNA [2]: did not suppress the expression of the apo-b gene mRNA

Particle diameter of Preparation obtained [1, 5]: 177.7 nm
SMILES: CCCCC/C=C\C/C=C\CCCCCCCCN(CCCCCCCC/C=C\C/C=C\CCCCC)C(=O)OCCCN [Compound VII-3, 3-Aminopropyl di((9Z,12Z)-octadeca-9,12-dienyl)carbamate, reference compound]
